Laboratory results: patent publication US11696913B2, “Prolonged ectoparasite-controlling agent for animal” (MITSUI CHEMICALS AGRO, INC., priority 2017, dated 2023)

Key:
[1] = test system: Rhipicephalus (Boophilus) microplus; assay: In vitro injection test with Rhipicephalus (Boophilus) microplus (BOOPMI Inj); conditions: 168 h, laid fertile eggs after 7 days, read-out: acaricidal activity; for pest or weed control at 0.00016 mg: dose 0.16 μg/animal injected; for pest or weed control at 0.0008 mg: dose 0.8 μg/animal injected; for pest or weed control at 32 ng: dose 0.032 μg/animal injected
Procedure: In Vitro Injection Test with Rhipicephalus (Boophilus) Microplus (BOOPMI Inj)
To produce an appropriate mixture for injection, the test substance was dissolved and diluted in dimethyl sulphoxide to the desired concentration. 1 μl of the test mixture was injected into the abdomen of each of 5 engorged adult female cattle ticks (Rhipicephalus (Boophilus) microplus). The ticks were transferred into petri dishes and maintained in a climate-controlled room [28° C., 85% rel. hum.].
Acaricidal activity against cattle ticks was assessed after 7 days by assessment of laid fertile eggs. […] An acaricidal activity of 100% means that none of the ticks laid eggs or laid eggs were infertile; 0% means that the ticks laid eggs, and all the eggs were fertile.

Ctenocephalides felis [2] = assay: Ctenocephalides felis in-vitro feeding test with fleas (CTECFE oral); conditions: 48 hours, read-out: insecticidal feeding activity; for pest or weed control at 4 ppm: dose 4 ppm in citrated cattle blood; for pest or weed control at 0.16 ppm: dose 0.16 ppm in citrated cattle blood; for pest or weed control at 0.8 ppm: dose 0.8 ppm in citrated cattle blood
Procedure: Ctenocephalides felis In-Vitro Feeding Test with Fleas (CTECFE Oral)
To prepare a test blood mixture for feeding fleas, the test substance was dissolved in dimethyl sulphoxide and diluted with citrated cattle blood to the desired concentration.
To assemble the test set-up, about 20 unfed adult male and female cat fleas
(Ctenocephalides felis) were placed in a chamber which was closed at the top and bottom with gauze. A metal cylinder was sealed at one end with parafilm membrane, placed with the sealed base onto the chamber, and filled with the test blood mixture, which could be imbibed by the fleas through the parafilm membrane. The assembled test set-up was maintained at about 37° C. After 48 hours, the insecticidal feeding activity against fleas was determined. 100% means that all of the fleas were killed; 0% means that none of the fleas was killed.

Amblyomma americanum = assay: In vitro contact test with hard ticks (Amblyomma americanum nymphs); conditions: read-out: acaricidal activity; for pest or weed control at 0.2 µg/cm2, 0.2 µg/cm2: dose 0.2 μg/cm^2, 48 h; for pest or weed control at 1 µg/cm2, 1 µg/cm2: dose 1 μg/cm^2, 48 h
Procedure: (§1) In Vitro Contact Tests with Adult Hard Ticks
(§2) In vitro contact tests with ticks were conducted with adult males and females of Rhipicephalus sanguineus, Ixodes ricinus, or Dermacentor variabilis, or nymphs of Amblyomma americanum.
(§3) For the coating of the test vials, the test substance was dissolved and diluted in acetone p.a. to the desired concentration. The solution was then homogeneously applied to the inner wall and base of a glass vial by turning and rocking on an orbital shaker until complete evaporation of the solvent. For example, with a 900 ppm solution of test substance, an area-based dose of 5 μg/cm^2 was achieved.
(§4) After the solvent was completely evaporated, 5-10 adult ticks were put in each coated test vial, which was then sealed with a perforated plastic lid and incubated in a horizontal position in the dark at room temperature and ambient humidity (Rhipicephalus sanguineus) or in a climate-controlled cabinet (Ixodes ricinus, Dermacentor variabilis, Amblyomma americanum [21° C., 85% rel. hum.]). Acaricidal activity against the respective tick species was determined after 48 h. For this, ticks were collected to the base of the test vial by gentle knocking, and test vials were then incubated on a hotplate at 45-50° C. for no longer than 5 min. Ticks which remained motionless on the base of the test vial or moved uncoordinated without deliberately climbing up to avoid the heat were considered dead or moribund, respectively.
(§5) A substance was judged to have good acaricidal activity against the respective tick species when at least 80% of ticks were found dead or moribund at a dose of the substance of g/cm^2. An acaricidal activity of 100% means all ticks were dead or moribund. An acaricidal activity of 0% means none of the ticks was found dead or moribund.

Ctenocephalides felis [3] = assay: In vitro contact test with fleas; conditions: read-out: insecticidal activity; for pest or weed control at 0.2 µg/cm2, 0.2 µg/cm2: dose 0.2 μg/cm^2, dead or moribund fleas after 48 h; for pest or weed control at 1 µg/cm2, 1 µg/cm2: dose 1 μg/cm^2, dead or moribund fleas after 48 h; for pest or weed control at 0.04 µg/cm2, 0.04 µg/cm2: dose 0.04 μg/cm^2, dead or moribund fleas after 48 h
Procedure: In Vitro Contact Tests with Fleas
In vitro contact tests with fleas were conducted with adult male and female cat fleas (Ctenocephalides felis).
To coat the test tubes, the test substance was dissolved and diluted in acetone p.a. to the desired concentration. The solution was then homogeneously applied to the inner wall and base of a glass tube by turning and rocking on an orbital shaker until complete evaporation of the solvent. For example, with a 900 ppm solution of test substance, an area-based dose of 5 μg/cm^2 was achieved.
Upon complete evaporation of the solvent, 5-10 adult cat fleas (Ctenocephalides felis) were added to each coated tube, which was then sealed with a perforated plastic lid and incubated in a horizontal position at room temperature and ambient humidity. After 48 h, insecticidal activity against fleas was determined. For this, fleas were collected to the base of the tube by knocking the tube, and the tube was allowed to stand upright. Fleas which remained motionless at the base or moved in an uncoordinated manner were considered dead or moribund, respectively.
A substance was judged to have good insecticidal activity against Ctenocephalides felis when at least 80% of the fleas were found dead or moribund at a dose of the substance of μg/cm^2. 100% insecticidal activity means that all the fleas were found dead or moribund. 0% insecticidal activity means that no fleas were found dead or moribund.

Rhipicephalus sanguineus = assay: In vitro contact test with adult hard ticks (Rhipicephalus sanguineus); conditions: read-out: acaricidal activity; for pest or weed control at 0.2 µg/cm2, 0.2 µg/cm2: dose 0.2 μg/cm^2, 48 h; for pest or weed control at 1 µg/cm2, 1 µg/cm2: dose 1 μg/cm^2, 48 h; for pest or weed control at 0.04 µg/cm2, 0.04 µg/cm2: dose 0.04 μg/cm^2, 48 h
Procedure: as §1, §2, §3, §4, §5

Dermacentor variabilis = assay: In vitro contact test with adult hard ticks (Dermacentor variabilis); conditions: read-out: acaricidal activity; for pest or weed control at 0.2 µg/cm2, 0.2 µg/cm2: dose 0.2 μg/cm^2, 48 h; for pest or weed control at 1 µg/cm2, 1 µg/cm2: dose 1 μg/cm^2, 48 h
Procedure: as §1, §2, §3, §4, §5

Structure (SMILES)	pest or weed control at 0.00016 mg [1]	pest or weed control at 0.0008 mg [1]	pest or weed control at 4 ppm (Ctenocephalides felis [2])	pest or weed control at 0.2 µg/cm2, 0.2 µg/cm2 (Amblyomma americanum)	pest or weed control at 1 µg/cm2, 1 µg/cm2 (Amblyomma americanum)	pest or weed control at 0.2 µg/cm2, 0.2 µg/cm2 (Ctenocephalides felis [3])	pest or weed control at 1 µg/cm2, 1 µg/cm2 (Ctenocephalides felis [3])	pest or weed control at 0.2 µg/cm2, 0.2 µg/cm2 (Rhipicephalus sanguineus)	pest or weed control at 1 µg/cm2, 1 µg/cm2 (Rhipicephalus sanguineus)	pest or weed control at 0.16 ppm (Ctenocephalides felis [2])	pest or weed control at 0.8 ppm (Ctenocephalides felis [2])	pest or weed control at 0.04 µg/cm2, 0.04 µg/cm2 (Rhipicephalus sanguineus)	pest or weed control at 0.2 µg/cm2, 0.2 µg/cm2 (Dermacentor variabilis)	pest or weed control at 1 µg/cm2, 1 µg/cm2 (Dermacentor variabilis)	pest or weed control at 6.4 ng ([1]; dose 0.0064 μg/animal injected)	pest or weed control at 32 ng [1]	pest or weed control at 0.04 µg/cm2, 0.04 µg/cm2 (Dermacentor variabilis; dose 0.04 μg/cm^2, 48 h)	pest or weed control at 0.0064 ppm (Ctenocephalides felis [2]; dose 0.0064 ppm in citrated cattle blood)	pest or weed control at 0.032 ppm (Ctenocephalides felis [2]; dose 0.032 ppm in citrated cattle blood)	pest or weed control at 0.04 µg/cm2, 0.04 µg/cm2 (Ctenocephalides felis [3])
N#Cc1ccc(C(=O)Nc2cccc(C(=O)Nc3c(Br)cc(C(F)(C(F)(F)F)C(F)(F)F)cc3C(F)(F)F)c2)c(F)c1 [Compound 15]	100%	100%	95%	90%	90%	95%	95%	90%	90%											
O=C(Nc1cccc(C(=O)Nc2c(Br)cc(C(F)(C(F)(F)F)C(F)(F)F)cc2OC(F)(F)F)c1)c1ccc([N+](=O)[O-])cc1 [Compound 11]	100%	100%	95%	90%	90%	95%	95%	90%	90%	95%	95%	90%								
N#Cc1ccc(C(=O)Nc2cccc(C(=O)Nc3c(I)cc(C(F)(C(F)(F)F)C(F)(F)F)cc3C(F)(F)F)c2)cc1 [Compound 19]	100%	100%	95%		90%	95%	95%	90%	90%		95%									
O=C(Nc1c(I)cc(C(F)(C(F)(F)F)C(F)(F)F)cc1C(F)(F)F)c1cccc(NC(=O)c2ccc([N+](=O)[O-])cc2Cl)c1 [Compound 39]	100%	100%	95%	90%	90%		95%		90%		95%									
O=C(Nc1cccc(C(=O)Nc2c(I)cc(C(F)(C(F)(F)F)C(F)(F)F)cc2C(F)(F)F)c1F)c1ccc(Cl)cc1Cl [Compound 33]	100%	100%	95%	90%	90%	95%	95%			95%	95%		90%	90%						
N#Cc1ccc(C(=O)Nc2cccc(C(=O)Nc3c(Br)cc(C(F)(C(F)(F)F)C(F)(F)F)cc3C(F)(F)F)c2)cc1 [Compound 3]		100%	95%		90%	95%	95%	90%	90%											
CN(C(=O)c1ccc(C#N)cc1)c1cccc(C(=O)Nc2c(I)cc(C(F)(C(F)(F)F)C(F)(F)C(F)(F)F)cc2C(F)(F)F)c1F (centres unmarked) [Compound 23]	100%	100%	95%		90%	95%	95%		90%	95%	95%		90%	90%	100%	100%	90%	95%	95%	95%
CN(C(=O)c1ccc(F)nc1)c1cccc(C(=O)Nc2c(Br)cc(C(F)(C(F)(F)F)C(F)(F)F)cc2C(F)(F)F)c1F [Compound 21]	100%	100%	95%	90%	90%	95%	95%	90%	90%		95%	90%	90%	90%		100%				95%
O=C(Nc1c(I)cc(C(F)(C(F)(F)F)C(F)(F)F)cc1C(F)(F)F)c1cccc(NC(=O)c2cc(F)c(F)cc2Cl)c1 [Compound 38]	100%	100%	95%	90%	90%	95%	95%			95%	95%			90%						
